# Earlier results, collected in US20230201171A1, “COMPOSITIONS AND METHODS FOR PREVENTING POST-ERCP PANCREATITIS” (THE BOARD OF TRUSTEES OF THE LELAND STANFORD JUNIOR …, priority 2020, published 2023).
# Test system: post-ERCP pancreatitis (PEP)
# Settings: rectal indomethacin alone, current standard of care
structure (smiles),measurement,value
"COc1ccc2c(c1)c(CC(=O)O)c(C)n2C(=O)c1ccc(Cl)cc1 [rectal indomethacin, indomethacin]",effectiveness of PEP prophylaxis,35-40%
